Measured values from paper PMC4728423, “Natural and synthetic flavonoid modulation of TRPC5 channels” (British Journal of Pharmacology, 2016).
Each block holds one molecule with its values, some of them ahead of it.

Tests used:
human TRPC5 [1] = molecular target: T1, human TRPC5 (Homo sapiens, UniProt Q9UL62); assay: Gd3+-evoked Ca2+ entry in TRPC5-expressing (Tet+) HEK 293 cells; assay type: cell-based
T1 construct: expressed in transfected cells
T1 sequence (Q9UL62 1-973): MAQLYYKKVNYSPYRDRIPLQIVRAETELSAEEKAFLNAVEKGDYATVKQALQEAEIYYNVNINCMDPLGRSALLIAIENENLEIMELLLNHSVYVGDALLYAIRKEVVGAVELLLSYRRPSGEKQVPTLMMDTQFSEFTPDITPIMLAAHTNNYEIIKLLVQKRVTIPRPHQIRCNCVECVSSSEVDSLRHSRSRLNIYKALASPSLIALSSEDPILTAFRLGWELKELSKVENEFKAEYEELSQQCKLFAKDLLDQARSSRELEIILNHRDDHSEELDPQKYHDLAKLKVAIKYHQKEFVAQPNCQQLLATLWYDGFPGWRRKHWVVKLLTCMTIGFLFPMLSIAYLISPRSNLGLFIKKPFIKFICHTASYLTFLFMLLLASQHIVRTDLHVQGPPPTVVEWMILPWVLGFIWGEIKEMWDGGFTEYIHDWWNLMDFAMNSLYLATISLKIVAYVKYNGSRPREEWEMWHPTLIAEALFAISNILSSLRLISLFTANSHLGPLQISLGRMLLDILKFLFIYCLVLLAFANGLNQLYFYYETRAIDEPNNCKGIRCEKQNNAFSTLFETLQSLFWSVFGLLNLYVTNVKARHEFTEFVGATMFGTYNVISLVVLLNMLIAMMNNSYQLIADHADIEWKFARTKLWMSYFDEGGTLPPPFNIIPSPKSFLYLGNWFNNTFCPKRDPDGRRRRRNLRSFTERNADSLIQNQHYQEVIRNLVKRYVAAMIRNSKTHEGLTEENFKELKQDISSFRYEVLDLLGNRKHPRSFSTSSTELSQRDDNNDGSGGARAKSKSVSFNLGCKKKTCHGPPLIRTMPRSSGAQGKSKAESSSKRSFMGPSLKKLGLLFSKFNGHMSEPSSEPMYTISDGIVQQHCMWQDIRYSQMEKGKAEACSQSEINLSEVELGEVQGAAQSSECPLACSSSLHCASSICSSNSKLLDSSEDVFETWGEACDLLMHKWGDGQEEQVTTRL

human TRPC5 [2] = molecular target: T1, human TRPC5; assay: Whole-cell patch clamp of TRPC5-expressing (Tet+) HEK 293 cells; assay type: cell-based; details: 10 μM compound
[3] = system: GABA-evoked ionic currents; set-up: method as in Goutman et al., 2003; details: ref Goutman et al., 2003; cited from earlier work
TRPV4 channels [4] = system: TRPV4 channels; set-up: method as in Ma et al., 2012; details: ref Ma et al., 2012; cited from earlier work
human TRPC5 [5] = molecular target: T1, human TRPC5; assay: Outside-out patch recordings from TRPC5 Tet+ cells; assay type: cell-based; details: outside-out patch, (-)-Englerin A-activated TRPC5
[6] = molecular target: T2, TRPC1-TRPC5 heteromeric channels (Homo sapiens, UniProt P48995+Q9UL62); assay: Whole-cell recordings of TRPC1-TRPC5 heteromeric channels stimulated by (-)-Englerin A; assay type: cell-based; details: 5 μM compound, 100 nM (-)-Englerin A
T2 construct: expressed in transfected cells; host or cells: HEK 293-MSR, transient, Lipofectamine 2000

TRPC4 = molecular target: T3, TRPC4 (Homo sapiens, UniProt Q9UBN4); assay: Outside-out patch recordings from TRPC4 Tet+ cells stimulated by (-)-Englerin A; assay type: cell-based; details: 5 μM compound, 100 nM (-)-Englerin A
T3 construct: expressed in transfected cells
T3 sequence (Q9UBN4 1-893 isoform Q9UBN4-2): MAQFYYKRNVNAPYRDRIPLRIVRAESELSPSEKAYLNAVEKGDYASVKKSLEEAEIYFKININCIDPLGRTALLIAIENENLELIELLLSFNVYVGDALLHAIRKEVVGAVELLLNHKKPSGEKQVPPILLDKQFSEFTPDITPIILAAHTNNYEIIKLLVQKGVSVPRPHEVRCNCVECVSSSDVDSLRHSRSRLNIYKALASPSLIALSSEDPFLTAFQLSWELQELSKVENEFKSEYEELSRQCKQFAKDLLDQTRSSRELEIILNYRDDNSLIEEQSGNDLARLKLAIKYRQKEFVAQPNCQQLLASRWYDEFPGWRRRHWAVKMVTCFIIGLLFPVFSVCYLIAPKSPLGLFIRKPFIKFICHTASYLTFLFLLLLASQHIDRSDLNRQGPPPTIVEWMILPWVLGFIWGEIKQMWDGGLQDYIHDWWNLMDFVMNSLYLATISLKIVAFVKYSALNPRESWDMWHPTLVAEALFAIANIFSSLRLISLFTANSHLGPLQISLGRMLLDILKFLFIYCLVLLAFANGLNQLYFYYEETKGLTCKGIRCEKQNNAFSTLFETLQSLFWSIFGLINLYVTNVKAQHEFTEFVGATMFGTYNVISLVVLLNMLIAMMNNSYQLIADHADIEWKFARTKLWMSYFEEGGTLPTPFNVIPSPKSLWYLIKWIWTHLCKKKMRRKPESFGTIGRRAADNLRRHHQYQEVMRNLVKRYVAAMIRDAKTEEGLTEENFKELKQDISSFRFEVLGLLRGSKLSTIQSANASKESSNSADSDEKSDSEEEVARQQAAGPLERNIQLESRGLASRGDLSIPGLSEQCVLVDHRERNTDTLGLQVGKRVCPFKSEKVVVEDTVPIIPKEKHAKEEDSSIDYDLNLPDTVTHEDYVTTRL

TRPC3 channels = molecular target: T4, TRPC3 channels (Homo sapiens, UniProt Q13507); assay: OAG-evoked Ca2+ entry in cells overexpressing TRPC3; assay type: cell-based; details: 10 μM compound, 50 μM OAG, fura-2
T4 construct: expressed in transfected cells
T4 sequence (Q13507 74-921 limits assumed): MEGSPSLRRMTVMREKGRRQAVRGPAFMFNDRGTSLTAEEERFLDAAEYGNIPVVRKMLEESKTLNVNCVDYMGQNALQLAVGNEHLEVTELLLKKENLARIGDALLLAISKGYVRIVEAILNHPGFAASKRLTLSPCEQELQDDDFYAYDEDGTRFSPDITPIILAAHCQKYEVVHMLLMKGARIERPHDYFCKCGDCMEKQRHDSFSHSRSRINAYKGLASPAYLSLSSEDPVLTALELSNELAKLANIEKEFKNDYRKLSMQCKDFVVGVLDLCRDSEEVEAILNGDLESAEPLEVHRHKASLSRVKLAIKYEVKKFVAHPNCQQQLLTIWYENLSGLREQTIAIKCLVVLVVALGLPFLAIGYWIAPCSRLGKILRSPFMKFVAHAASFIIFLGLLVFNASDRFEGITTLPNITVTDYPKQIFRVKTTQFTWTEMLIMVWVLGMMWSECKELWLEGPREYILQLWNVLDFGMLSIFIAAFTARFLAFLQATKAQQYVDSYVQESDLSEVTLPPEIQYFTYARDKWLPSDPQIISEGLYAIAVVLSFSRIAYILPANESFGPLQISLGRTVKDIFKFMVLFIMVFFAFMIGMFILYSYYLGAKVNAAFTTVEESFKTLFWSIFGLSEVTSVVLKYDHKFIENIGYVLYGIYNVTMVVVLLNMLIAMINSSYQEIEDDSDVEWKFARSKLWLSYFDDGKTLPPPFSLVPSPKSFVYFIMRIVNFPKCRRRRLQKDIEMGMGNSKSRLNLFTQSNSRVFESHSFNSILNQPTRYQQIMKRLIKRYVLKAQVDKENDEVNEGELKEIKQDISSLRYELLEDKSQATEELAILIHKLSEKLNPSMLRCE

TRPV4 channels [7] = molecular target: T5, TRPV4 channels (Homo sapiens, UniProt Q9HBA0); assay: 4alphaPDD-evoked Ca2+ entry in CHO K1 cells expressing TRPV4; assay type: cell-based; details: 10 μM compound, 1 μM 4αPDD, fluo-4
T5 construct: expressed in transfected cells

TRPM2 channels = molecular target: T6, TRPM2 channels (Homo sapiens, UniProt O94759); assay: H2O2-evoked Ca2+ entry in cells overexpressing TRPM2; assay type: cell-based; details: 10 μM compound, 1 mM H2O2, fura-2
T6 construct: expressed in transfected cells

[8] = system: endogenous Ca2+ release signal; assay: Endogenous Ca2+ release in non-induced (Tet-) TRPC5 HEK cells; assay type: cell-based, human; details: 10 μM compound, no extracellular Ca2+
human TRPC5 [9] = molecular target: T1, human TRPC5; assay: S1P- or LPC-evoked Ca2+ entry in TRPC5 (Tet+) HEK 293 cells; assay type: cell-based; details: 10 μM compound, fura-2
[10] = system: endogenous Ca2+ entry mechanism; assay: Ca2+ responses in control non-induced (Tet-) HEK cells with extracellular Ca2+; assay type: cell-based, human; details: 10 μM compound
TRPC5 = system: TRPC5; set-up: method as in Wong et al., 2010; details: ref Wong et al., 2010; cited from earlier work
3T3-L1 cells = details: ref Harmon and Harp, 2001; cited from earlier work

T2 sequence (P48995 whole entry, one chain of several): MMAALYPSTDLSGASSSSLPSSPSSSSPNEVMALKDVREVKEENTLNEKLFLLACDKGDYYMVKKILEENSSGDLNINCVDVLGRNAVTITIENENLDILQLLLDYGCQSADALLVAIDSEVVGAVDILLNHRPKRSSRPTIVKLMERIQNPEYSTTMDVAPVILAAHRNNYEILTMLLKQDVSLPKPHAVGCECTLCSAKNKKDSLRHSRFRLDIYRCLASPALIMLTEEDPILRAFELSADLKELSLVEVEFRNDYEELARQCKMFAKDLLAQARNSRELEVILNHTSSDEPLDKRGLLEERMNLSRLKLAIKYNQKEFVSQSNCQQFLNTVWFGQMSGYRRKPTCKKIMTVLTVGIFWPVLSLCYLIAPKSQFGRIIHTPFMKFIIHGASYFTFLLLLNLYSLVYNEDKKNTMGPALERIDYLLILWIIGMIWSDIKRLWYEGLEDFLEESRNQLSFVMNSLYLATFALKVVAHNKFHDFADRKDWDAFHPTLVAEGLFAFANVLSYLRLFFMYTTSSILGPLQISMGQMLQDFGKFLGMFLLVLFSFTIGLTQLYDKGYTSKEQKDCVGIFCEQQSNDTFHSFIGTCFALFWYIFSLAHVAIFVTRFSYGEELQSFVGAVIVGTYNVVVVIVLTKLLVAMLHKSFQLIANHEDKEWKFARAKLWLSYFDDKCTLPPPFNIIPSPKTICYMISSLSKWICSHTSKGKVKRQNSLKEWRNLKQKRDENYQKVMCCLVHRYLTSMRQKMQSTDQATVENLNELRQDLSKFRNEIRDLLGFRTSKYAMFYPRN
T6 sequence (O94759 whole entry): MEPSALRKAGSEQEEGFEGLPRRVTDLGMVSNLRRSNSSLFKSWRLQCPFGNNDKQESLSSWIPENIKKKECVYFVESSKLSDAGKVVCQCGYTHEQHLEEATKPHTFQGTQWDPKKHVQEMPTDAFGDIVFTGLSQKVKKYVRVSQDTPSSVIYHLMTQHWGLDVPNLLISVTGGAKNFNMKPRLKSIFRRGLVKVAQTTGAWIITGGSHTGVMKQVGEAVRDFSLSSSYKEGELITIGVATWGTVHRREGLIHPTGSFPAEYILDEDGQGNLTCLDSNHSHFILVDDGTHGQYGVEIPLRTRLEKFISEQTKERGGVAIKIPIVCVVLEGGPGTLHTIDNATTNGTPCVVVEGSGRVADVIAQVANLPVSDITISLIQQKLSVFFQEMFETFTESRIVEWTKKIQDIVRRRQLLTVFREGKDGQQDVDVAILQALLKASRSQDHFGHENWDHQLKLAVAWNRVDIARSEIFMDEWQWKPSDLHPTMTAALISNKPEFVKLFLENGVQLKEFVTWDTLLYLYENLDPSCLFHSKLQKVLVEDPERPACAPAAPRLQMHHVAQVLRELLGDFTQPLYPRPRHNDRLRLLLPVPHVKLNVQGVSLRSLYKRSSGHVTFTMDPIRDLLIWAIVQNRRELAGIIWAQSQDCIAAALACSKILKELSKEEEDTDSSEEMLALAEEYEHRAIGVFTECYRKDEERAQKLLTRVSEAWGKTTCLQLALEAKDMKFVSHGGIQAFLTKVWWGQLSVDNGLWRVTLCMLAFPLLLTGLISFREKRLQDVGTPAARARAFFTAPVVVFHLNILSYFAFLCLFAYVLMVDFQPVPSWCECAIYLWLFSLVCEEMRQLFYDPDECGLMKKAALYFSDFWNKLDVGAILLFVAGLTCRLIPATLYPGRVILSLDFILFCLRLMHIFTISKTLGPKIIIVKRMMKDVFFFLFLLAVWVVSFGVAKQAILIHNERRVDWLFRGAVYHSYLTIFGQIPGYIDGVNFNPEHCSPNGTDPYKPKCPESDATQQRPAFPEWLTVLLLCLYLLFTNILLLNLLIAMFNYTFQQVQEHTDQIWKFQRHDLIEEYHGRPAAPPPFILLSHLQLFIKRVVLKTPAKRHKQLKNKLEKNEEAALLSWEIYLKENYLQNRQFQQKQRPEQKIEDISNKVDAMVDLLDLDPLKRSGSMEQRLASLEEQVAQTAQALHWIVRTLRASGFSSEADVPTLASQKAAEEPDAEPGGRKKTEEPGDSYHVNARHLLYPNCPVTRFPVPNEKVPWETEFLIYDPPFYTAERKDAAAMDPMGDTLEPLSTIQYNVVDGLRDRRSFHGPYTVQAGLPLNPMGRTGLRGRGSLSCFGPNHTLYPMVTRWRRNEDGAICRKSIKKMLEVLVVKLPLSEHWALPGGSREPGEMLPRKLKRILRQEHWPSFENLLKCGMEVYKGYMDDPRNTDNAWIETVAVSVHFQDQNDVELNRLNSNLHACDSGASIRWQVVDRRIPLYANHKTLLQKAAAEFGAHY
T5 sequence (Q9HBA0 whole entry): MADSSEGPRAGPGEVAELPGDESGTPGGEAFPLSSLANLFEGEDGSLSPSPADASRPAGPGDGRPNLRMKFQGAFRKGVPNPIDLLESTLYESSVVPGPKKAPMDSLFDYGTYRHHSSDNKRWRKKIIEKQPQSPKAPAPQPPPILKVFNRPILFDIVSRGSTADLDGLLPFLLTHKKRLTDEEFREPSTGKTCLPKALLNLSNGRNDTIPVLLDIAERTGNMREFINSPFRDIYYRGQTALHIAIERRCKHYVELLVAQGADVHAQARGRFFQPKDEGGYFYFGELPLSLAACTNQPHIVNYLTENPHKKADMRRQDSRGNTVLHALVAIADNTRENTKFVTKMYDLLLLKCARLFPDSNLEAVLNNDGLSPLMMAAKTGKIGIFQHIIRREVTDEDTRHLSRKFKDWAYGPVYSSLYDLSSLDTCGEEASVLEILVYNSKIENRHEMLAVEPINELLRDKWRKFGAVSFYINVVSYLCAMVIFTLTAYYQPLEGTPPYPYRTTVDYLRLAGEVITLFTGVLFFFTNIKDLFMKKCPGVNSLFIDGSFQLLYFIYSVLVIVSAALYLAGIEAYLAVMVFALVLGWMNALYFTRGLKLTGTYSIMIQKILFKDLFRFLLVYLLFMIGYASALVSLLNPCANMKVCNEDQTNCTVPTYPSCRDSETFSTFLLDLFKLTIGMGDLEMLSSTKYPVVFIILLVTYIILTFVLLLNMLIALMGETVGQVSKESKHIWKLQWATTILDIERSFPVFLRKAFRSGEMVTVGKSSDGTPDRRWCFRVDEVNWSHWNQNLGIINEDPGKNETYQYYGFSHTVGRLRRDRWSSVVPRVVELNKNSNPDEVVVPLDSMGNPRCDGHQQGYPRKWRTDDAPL

- effect on Gd3+-evoked Ca2+ entry (natural flavonoid screen) (human TRPC5 [1]; 10 μM, 50 μM Gd3+, XRhod-1): stimulatory effect
- effect on TRPC5-mediated whole-cell current (no other activator) (human TRPC5 [2]): stimulate
SMILES: O=c1cc(-c2ccc(O)cc2)oc2cc(O)cc(O)c12 [Apigenin]
- effect on GABA-evoked ionic currents [3]: inhibited
- effect on TRPV4 channels (TRPV4 channels [4]): stimulating

- IC50 (human TRPC5 [1]; TRPC5 (Tet+) HEK 293, Gd3+, fura-2, read-out: IC50, inhibition of Gd3+-evoked Ca2+ entry): 280 nM
- recovery on washout (human TRPC5 [5]): fast recovery on washout
- inhibition of TRPC1-TRPC5 heteromeric channel current [6]: ~ 20%
- average inhibition of TRPC4 current (TRPC4): ~ 80%
- effect on Ca2+ entry through TRPC3 channels (TRPC3 channels): did not reach statistical significance
- effect on Ca2+ entry through TRPV4 channels (TRPV4 channels [7]): significant stimulatory effect
- effect on TRPM2 channels (TRPM2 channels): no effect
- effect on S1P-evoked Ca2+ entry (human TRPC5 [9]; 5 μM S1P): stimulated rather than inhibited
- effect on LPC-evoked Ca2+ entry (human TRPC5 [9]; 10 μM LPC): enhanced
SMILES: O=c1c(O)c(-c2ccccc2Br)oc2cc(O)cc(O)c12 [AM12, 3,5,7‐trihydroxy‐2‐(2‐bromophenyl)‐4H‐chromen‐4‐one]
- effect on Ca2+ release evoked by thapsigargin ([8]; 3 μM thapsigargin): no effect
- effect on Ca2+ release evoked by ATP ([8]; 100 μM ATP): no effect
- effect on S1P and LPC responses in Tet- cells [10]: no effects
- effect on ATP response in the presence of extracellular Ca2+ ([10]; 100 μM ATP): enhanced

SMILES: O=c1c(-c2ccc(O)cc2)coc2cc(O)cc(O)c12 [genistein]
- effect on TRPC5 (TRPC5): stimulated
- effect on 3T3-L1 cell proliferation and differentiation (3T3-L1 cells): inhibited proliferation and subsequent differentiation
